In US20260184726A1, “HETEROCYCLIC COMPOUNDS AS KINASE INHIBITORS, COMPOSITIONS, AND METHODS OF USE THEREOF” (JS INNOMED HOLDINGS LTD., priority 2022, published 2026) one finds IC50 and GI50 data, which are given here for 5 compounds.

One assay has as its target T1, human Aurora B kinase (Homo sapiens, UniProt Q96GD4).
T1 construct: purchased Carna 05-102
The experiment in a line: Aurora B Kinase Assay (mobility shift assay, ATP at Km). The format is biochemical. The following applies: 15 μM ATP (Km), read-out: AurB Enzymatic Activity. How it is done: Compounds were tested by Mobility shift assay with ATP concentration at Km. The assay used human Aurora B kinase (Carna 05-102). Test compounds were prepared and diluted in DMSO in 3-fold serial dilutions to 50× of the final testing concentrations. The compounds were then further diluted to 5× by the kinase reaction buffer (50 mM HEPES pH 7.5, 0.0015% Brij-35). The enzymatic reaction for compound testing was performed in a white 384-well polypropylene plate (Corning 3573) with a total reaction volume of 25 μl containing 9 nM Aurora B, 3 μM peptide substrate FAM-P21 (GL Biochem 116370), and 15 μM ATP (Sigma A7699-1G). The assay started with loading Aurora B diluted in kinase reaction buffer to wells, followed by addition of equal volume of 5× compounds for 15-min incubation at the room temperature for pre-treatment. The enzymatic reaction was initiated by addition of mixture of the substrate and ATP prepared in kinase reaction buffer. After incubation at 28° C. for one hour, 25 μl of stopper buffer (a mixture of 100 mM HEPES pH 7.5 buffer, 0.015% Brij-35, 50 mM EDTA and 0.2% of coating reagent 3 (Cliper Lifesciences)). After 30 minutes of incubation at room temperature, the plate was read in a Caliper. Percent of control was calculated as the percentage of compound-treated vs 2% DMSO vehicle-treated. The dose-response curves were generated and the IC50 values were calculated by nonlinear sigmoid curve fitting using XLFit.

A further assay relates to BAF3 cells. As to the kind of experiment: BAF3 Cell Proliferation Assay (CellTiter-Glo, without RET driven, IL-3). The class given is cell-based. The following applies: Mus musculus; growth inhibition in BAF3 cells, 72 hours, with IL-3; read-out: BAF3 Cellular Activity. How it is done: Compounds disclosed herein were tested for the inhibition BAF3 cells proliferation without RET driven by CellTiter-Glo assay. In this assay, a complete media was prepared by adding 10% fetal bovine serum and 1 ng/ml IL-3 to RPMI-1640 medium (Life technology) for BAF3 cells. BAF3 cells were added to each of 88 wells of a 96 well plate at a seeding density of 2,000 cells/well/95 μL. The cells were allowed to attach to the plate by incubating at 37° C. for 24 hours. The compound was dissolved in DMSO (SIGMA). A solution of test compound was prepared in complete media by serial dilution to obtain the following concentrations: 200 μM, 66.7 μM, 22.2 μM, 7.4 μM, 2.5 μM, 0.82 μM, 0.27 μM, 0.091 μM and […]. The test compound solution (5 μL) was added to each of 80 cell-containing wells. The final concentrations of the compound were following: 10 μM, 3.33 μM, 1.11 μM, 0.37 μM, 0.12 μM, 0.041 μM, 0.014 μM, 0.0046 μM and 0.0015 μM. The final concentration of DMSO is 0.1%. To the 8 remaining cell-containing wells, only complete media (containing 0.1% DMSO) was added to form a control group in order to measure maximal proliferation. To the remaining 8 empty wells, complete media was added to for a vehicle control group in order to measure background. The plates were incubated at 37° C. for 72 hours. 50 μl of CellTiter-Glo® Reagent was added to each well. The contents were mixed for 2 minutes on an orbital shaker to induce cell lysis, and then were incubated at room temperature for 10 minutes to stabilize luminescent signal. Luminescence was recorded on Paradigm. Cell viability (CV %) was calculated relative to vehicle (DMSO) treated control wells. The IC50 was calculated using GraphPad Prism.
In general terms: In ATP-based viability assays light output follows the ATP content of the culture.

The next assay concerns the target T2, BAF3-KIF5B-RET cells (Homo sapiens, UniProt P07949).
T2 construct: fused on or other part: P33176 (Kinesin-1 heavy chain)
As to the kind of experiment: BAF3-KIF5B-RET Cell Proliferation Assay (CellTiter-Glo). The class given is cell-based. The following applies: growth inhibition, 72 hours; Table 2; read-out: BA/F3-KIF5B-RET Cellular activity. How it is done: Compounds disclosed herein were tested for the inhibition of RET by a cancer cell proliferation assay commonly known as CellTiter-Glo assay. In this assay, a complete media was prepared by adding 10% fetal bovine serum to RPMI-1640 medium (Life technology) for RET-driven cancer cells (BAF3-FIF5B-RET, Ba/F3-KIF5B-RET-G810R, Ba/F3-TEL-RET-M918T or Ba/F3-KIF5B-RET-V804M). Individual RET-driven type of cells were added to each of 88 wells of a 96 well plate at a seeding density of 2,000 cells/well/95 μL. The cells were allowed to attach to the plate by incubating at 37° C. for 24 hours. The compound was dissolved in DMSO (SIGMA). A solution of test compound was prepared in complete media by serial dilution to obtain the following concentrations: 20 μM, 6.67 μM, 2.22 μM, 0.74 μM, 0.25 μM, 0.082 μM, 0.027 μM, 0.0091 μM and 0.0030 μM. The test compound solution (5 μL) was added to each of 80 cell-containing wells. The final concentrations of the compound were following: 1 μM, 0.33 μM, 0.11 μM, 0.037 μM, 0.012 μM, 0.0041 μM, 0.0014 μM, 0.00046 μM and 0.00015 μM. The final concentration of DMSO is 0.1%. To the 8 remaining cell-containing wells, only complete media (containing 0.1% DMSO) was added to form a control group in order to measure maximal proliferation. To the remaining 8 empty wells, complete media was added to for a vehicle control group in order to measure background. The plates were incubated at 37° C. for 72 hours. 50 μl of CellTiter-Glo® Reagent was added to each well. Mix contents for 2 minutes on an orbital shaker to induce cell lysis. Incubate at room temperature for 10 minutes to stabilize luminescent signal. Record luminescence on Paradigm. Cell viability (CV %) was calculated relative to vehicle (DMSO) treated control wells. The IC50 was calculated using GraphPad Prism.

Another assay deals with T3, human RET kinase (Homo sapiens, UniProt P07949).
T3 construct: purchased Carna 08-159
T3 sequence (P07949 29-1114): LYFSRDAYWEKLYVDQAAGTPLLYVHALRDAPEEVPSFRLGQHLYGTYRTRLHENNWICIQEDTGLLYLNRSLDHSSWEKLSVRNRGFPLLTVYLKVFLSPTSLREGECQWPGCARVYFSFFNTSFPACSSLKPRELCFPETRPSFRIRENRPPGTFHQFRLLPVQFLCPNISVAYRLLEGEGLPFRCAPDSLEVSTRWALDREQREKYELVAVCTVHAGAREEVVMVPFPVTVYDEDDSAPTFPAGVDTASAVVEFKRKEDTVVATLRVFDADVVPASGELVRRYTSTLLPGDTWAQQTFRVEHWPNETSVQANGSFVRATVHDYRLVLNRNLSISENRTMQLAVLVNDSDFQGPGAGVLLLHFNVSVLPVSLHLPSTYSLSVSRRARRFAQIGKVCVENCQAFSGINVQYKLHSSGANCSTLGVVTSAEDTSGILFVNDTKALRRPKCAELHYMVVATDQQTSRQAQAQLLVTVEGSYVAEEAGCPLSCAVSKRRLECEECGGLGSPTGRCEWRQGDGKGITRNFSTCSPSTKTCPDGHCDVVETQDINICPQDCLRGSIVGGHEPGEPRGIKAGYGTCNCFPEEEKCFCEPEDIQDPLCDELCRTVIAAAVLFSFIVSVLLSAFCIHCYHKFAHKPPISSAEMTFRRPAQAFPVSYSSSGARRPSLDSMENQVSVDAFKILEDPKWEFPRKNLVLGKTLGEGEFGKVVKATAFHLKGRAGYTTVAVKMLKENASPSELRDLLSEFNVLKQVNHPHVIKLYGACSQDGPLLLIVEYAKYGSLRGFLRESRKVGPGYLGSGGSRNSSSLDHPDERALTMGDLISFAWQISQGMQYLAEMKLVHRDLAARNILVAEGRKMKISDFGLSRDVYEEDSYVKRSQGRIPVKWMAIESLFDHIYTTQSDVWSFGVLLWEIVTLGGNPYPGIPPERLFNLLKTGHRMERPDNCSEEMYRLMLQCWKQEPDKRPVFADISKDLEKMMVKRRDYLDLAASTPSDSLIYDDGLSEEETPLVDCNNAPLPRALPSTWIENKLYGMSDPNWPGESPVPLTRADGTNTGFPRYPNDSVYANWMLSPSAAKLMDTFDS
The experiment in a line: RET Kinase Assay (mobility shift assay, ATP at Km). The conditions noted are these: 23 μM ATP (Km), read-out: RET Enzymatic Activity. The class given is biochemical. As to the method: Compounds were tested by Mobility shift assay with ATP concentration at Km. The assay used human RET kinase (Carna 08-159). Test compounds were prepared and diluted in DMSO in 3-fold serial dilutions to 50× of the final testing concentrations. The compounds were then further diluted to 5× by the kinase reaction buffer (50 mM HEPES pH 7.5, 0.0015% Brij-35). The enzymatic reaction for compound testing was performed in a white 384-well polypropylene plate (Corning 3573) with a total reaction volume of 25 μl containing 7 nM RET, 3 μM peptide substrate FAM-P2 (GL Biochem 112394), and 23 μM ATP (Sigma A7699-1G). The assay started with loading RET diluted in kinase reaction buffer to wells, followed by addition of equal volume of 5× compounds for 15-min incubation at the room temperature for pre-treatment. The enzymatic reaction was initiated by addition of mixture of the substrate and ATP prepared in kinase reaction buffer. After incubation at 28° C. for one hour, 25 μl of stopper buffer (a mixture of 100 mM HEPES pH 7.5 buffer, 0.015% Brij-35, 50 mM EDTA and 0.2% of coating reagent 3 (Cliper Lifesciences)). After 30 minutes of incubation at room temperature, the plate was read in a Caliper. Percent of control was calculated as the percentage of compound-treated vs 2% DMSO vehicle-treated. The dose-response curves were generated and the IC50 values were calculated by nonlinear sigmoid curve fitting using XLFit.

T1 sequence (Q96GD4 whole entry): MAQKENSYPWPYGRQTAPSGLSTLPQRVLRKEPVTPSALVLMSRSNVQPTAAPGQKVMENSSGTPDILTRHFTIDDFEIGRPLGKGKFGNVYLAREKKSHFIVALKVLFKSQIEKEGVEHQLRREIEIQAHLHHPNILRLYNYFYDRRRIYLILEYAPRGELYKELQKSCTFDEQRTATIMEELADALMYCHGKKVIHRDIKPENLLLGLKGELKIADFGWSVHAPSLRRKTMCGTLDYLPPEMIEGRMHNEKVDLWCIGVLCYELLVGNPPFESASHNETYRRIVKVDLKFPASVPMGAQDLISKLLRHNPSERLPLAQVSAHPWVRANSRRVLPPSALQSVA
T1 sequence (Q9NQS7 803-918 partner limits assumed): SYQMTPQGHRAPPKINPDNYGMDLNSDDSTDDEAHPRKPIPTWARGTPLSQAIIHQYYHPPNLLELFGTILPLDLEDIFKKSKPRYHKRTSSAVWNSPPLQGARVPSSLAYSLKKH
T2 sequence (P07949 whole entry, change not shown, the tested form may be a part): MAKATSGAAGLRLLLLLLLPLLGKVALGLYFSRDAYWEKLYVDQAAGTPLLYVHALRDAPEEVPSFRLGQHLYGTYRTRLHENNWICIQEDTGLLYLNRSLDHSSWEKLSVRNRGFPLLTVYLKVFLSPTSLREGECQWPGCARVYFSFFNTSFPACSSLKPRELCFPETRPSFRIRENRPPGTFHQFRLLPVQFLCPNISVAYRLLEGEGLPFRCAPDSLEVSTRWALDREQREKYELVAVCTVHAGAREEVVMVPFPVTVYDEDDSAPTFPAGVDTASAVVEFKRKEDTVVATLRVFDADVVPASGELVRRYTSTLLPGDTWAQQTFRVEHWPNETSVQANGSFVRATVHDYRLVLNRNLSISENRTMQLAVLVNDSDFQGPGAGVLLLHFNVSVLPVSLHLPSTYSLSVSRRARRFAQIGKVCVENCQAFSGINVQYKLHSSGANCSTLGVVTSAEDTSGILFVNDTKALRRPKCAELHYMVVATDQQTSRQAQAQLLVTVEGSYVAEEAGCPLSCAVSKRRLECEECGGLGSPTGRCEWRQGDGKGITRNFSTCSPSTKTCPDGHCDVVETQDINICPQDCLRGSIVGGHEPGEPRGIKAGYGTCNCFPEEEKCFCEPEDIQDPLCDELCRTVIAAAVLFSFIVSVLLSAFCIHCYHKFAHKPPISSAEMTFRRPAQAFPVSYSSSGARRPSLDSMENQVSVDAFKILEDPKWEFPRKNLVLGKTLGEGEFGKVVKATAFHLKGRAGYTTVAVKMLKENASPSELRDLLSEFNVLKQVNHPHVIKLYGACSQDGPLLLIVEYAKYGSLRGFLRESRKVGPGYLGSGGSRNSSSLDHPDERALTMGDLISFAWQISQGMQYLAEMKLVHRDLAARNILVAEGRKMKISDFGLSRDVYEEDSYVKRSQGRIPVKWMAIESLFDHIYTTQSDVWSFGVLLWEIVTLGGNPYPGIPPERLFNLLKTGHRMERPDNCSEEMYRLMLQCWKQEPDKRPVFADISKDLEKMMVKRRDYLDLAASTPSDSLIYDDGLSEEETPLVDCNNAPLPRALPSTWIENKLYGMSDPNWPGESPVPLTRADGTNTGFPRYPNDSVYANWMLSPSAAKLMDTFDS

As for `COc1ccc(CN2C3CC2CN(c2ccc(-c4cc(-c5cc(C(C)(C)O)n(C)n5)cn5ncc(C#N)c45)cn2)C3)cn1` [Example 4, 6-(5-(2-hydroxypropan-2-yl)-1-methyl-1H-pyrazol-3-yl)-4-(6-(6-((6-methoxypyridin-3-yl)methyl)-3,6-diazabicyclo[3.1.1]heptan-3-yl)pyridin-3-yl)pyrazolo[1,5-a]pyridine-3-carbonitrile], the IC50 on human Aurora B kinase amounted to 0.128 µM; with BAF3 cells, 2.22 µM; at human RET kinase, 0.00067 µM. For the same compound, the GI50 on BAF3-KIF5B-RET cells amounted to 0.0007 µM.
Turning to `COc1ccc(CN2C3CC2CN(c2ccc(-c4cc(-c5ccc(C6(O)CC6)cn5)cn5ncc(C#N)c45)cn2)C3)cn1` [Example 11, 6-(5-(1-hydroxycyclopropyl)pyridin-2-yl)-4-(6-(6-((6-methoxypyridin-3-yl)methyl)-3,6-diazabicyclo[3.1.1]heptan-3-yl)pyridin-3-yl)pyrazolo[1,5-a]pyridine-3-carbonitrile], the IC50 at human Aurora B kinase was 0.0664 µM; in the assay with BAF3 cells, 3.06 µM; on human RET kinase, 0.0006 µM. Also, at BAF3-KIF5B-RET cells, the GI50 came to 0.0009 µM.
For `CCC(=O)c1ccc(-c2cc(-c3ccc(N4CC5CC(C4)N5Cc4ccc(OC)nc4)nc3)c3c(C#N)cnn3c2)nc1` [Example 37, 4-(6-(6-((6-methoxypyridin-3-yl)methyl)-3,6-diazabicyclo[3.1.1]heptan-3-yl)pyridin-3-yl)-6-(5-propionylpyridin-2-yl)pyrazolo[1,5-a]pyridine-3-carbonitrile], in that order: 0.138 µM, 4.46 µM, 0.0007 µM and 0.0012 µM.
With `COc1ccc(CN2C3CC2CN(c2ccc(-c4cc(-c5cnc(C(C)(C)O)nc5)cn5ncc(C#N)c45)cn2)C3)cn1` [Example 10, 6-(2-(2-hydroxypropan-2-yl)pyrimidin-5-yl)-4-(6-(6-((6-methoxypyridin-3-yl)methyl)-3,6-diazabicyclo[3.1.1]heptan-3-yl)pyridin-3-yl)pyrazolo[1,5-a]pyridine-3-carbonitrile], the IC50 on human Aurora B kinase was 0.743 µM; in the assay on BAF3 cells, over 10 µM; on human RET kinase it was 0.0035 µM. In addition, the GI50 on BAF3-KIF5B-RET cells was determined as 0.0305 µM.
Consider `CC(C)(O)c1ccc(-c2cc(-c3ccc(N4C[C@@H]5[C@@H](CNC(=O)c6ncccc6Cl)[C@@H]5C4)nc3)c3c(C#N)cnn3c2)nc1` [Example 5, 3-chloro-N-(((1R,5S,6s)-3-(5-(3-cyano-6-(5-(2-hydroxypropan-2-yl)pyridin-2-yl)pyrazolo[1,5-a]pyridin-4-yl)pyridin-2-yl)-3-azabicyclo[3.1.0]hexan-6-yl)methyl)picolinamide], for which the IC50 was found to be 0.0195 µM on human Aurora B kinase, 0.516 µM in the assay with BAF3 cells and 0.0008 µM at human RET kinase. Moreover, the GI50 at BAF3-KIF5B-RET cells was 0.003 µM.
